Assay results from US20150018296A1, “THERAPEUTIC METHODS AND COMPOSITIONS UTILIZING CYCLOHEXENONE COMPOUNDS” (Golden Biotechnology Corporation, priority 2013, published 2015).

What was measured:
H838 = assay: CCK-8 cell viability assay; type: cell-based, human; settings: 48 h treatment, mean ± S.E.M., wild-type Ras
Protocol: (§1) Human hepatoma (HepG2, Hep3B), human lung adenocarcinoma (A549, H838), and human myelogenous leukemia (K562) cell lines were obtained from American Type Culture Collection (Rockville, Md., USA). Human prostate cancer cell lines (LNCaP and DU145), human breast carcinoma (MCF-7), human bladder carcinoma (TSGH 8301) and human pancreas adenocarcinoma (BxPC-3) were obtained from BCRC (Bioresource Collection and Research Center, Hsinchu, Taiwan). HepG2, DU145 and MCF-7 cell lines were cultured in Minimum Essential Medium Alpha (Invitrogen/Gibco BRL, Grand Island, N.Y., USA). A549 cells were cultured in Dulbecco's modified Eagle's medium (Invitrogen/Gibco BRL). H838, TSGH 8301, BxPC-3 LNCaP and K562 cell lines were cultured in RPMI-1640 medium (Invitrogen/Gibco BRL). All cells were cultured at 37° C. in 5% CO2 in culture media supplemented with 10% fetal bovine serum (FBS) (Invitrogen/Gibco BRL) and 100 U/ml streptomycin and penicillin (Invitrogen/Gibco BRL). For treatment, cells were seeded in six-well plates at 6.25×10^5 cells/well. On the following day, the media was changed to serum-free media, and cells were serum-starved for 24 h. Compound 1 was dissolved in DMSO and diluted to the required concentration in serum-free medium. Cultures were then treated with diluted Compound 1 as indicated. After treatment, cells were washed with cold phosphate-buffered saline (PBS) and lysed using RIPA buffer containing phosphatase and protease inhibitors.
(§2) Cell Counting Kit-8 (CCK-8) allows sensitive colorimetric assays for the determination of cell viability in cell proliferation and cytotoxicity assays. The detection sensitivity of CCK-8 is higher than the other tetrazolium salts such as MTT, XTT, MTS or WST-1.
(§3) Cell viability was measured using Cell Counting Kit-8 (CCK-8, Enzo Life Sciences, Farmingdale, N.Y.). In this assay, WST-8 is reduced by dehydrogenases in cells to produce a yellow-colored product (formazan), which is soluble in culture medium. The amount of formazan generated is directly proportional to the number of living cells. After treatment, CCK-8 solution was added to each well and incubated for 4 h. The concentration of formazan was measured with a spectrophotometer at an absorbance wavelength of 450 nm. Cell viability was expressed as a percentage of the corresponding control.
(§4) To determine whether the cytotoxic effects of Compound 1 correlate with the presence of Ras mutations, cell lines derived from human lung cancer (A549 and H838), liver cancer (HepG2 and Hep3B), and leukemia (K562 and THP-1) with wild-type Ras (H838, Hep3B, and K562) or mutant Ras (A549, HepG2, and THP-1) were used. Cell viability was measured after 48 h of Compound 1 treatment.

A549 = assay: CCK-8 cell viability assay; type: cell-based; settings: Homo sapiens, 48 h treatment, mean ± S.E.M., mutant Ras
Protocol: as §1, §2, §3, §4

Hep3B = assay: CCK-8 cell viability assay; type: cell-based; settings: Homo sapiens, 48 h treatment, mean ± S.E.M., wild-type Ras
Protocol: as §1, §2, §3, §4

HepG2 = assay: CCK-8 cell viability assay; type: cell-based; settings: Homo sapiens, 48 h treatment, mean ± S.E.M., mutant Ras
Protocol: as §1, §2, §3, §4

K562 = assay: CCK-8 cell viability assay; type: cell-based; settings: Homo sapiens, 48 h treatment, mean ± S.E.M., wild-type Ras
Protocol: as §1, §2, §3, §4

THP-1 = assay: CCK-8 cell viability assay; type: cell-based; settings: Homo sapiens, 48 h treatment, mean ± S.E.M., mutant Ras
Protocol: as §2, §3, §4

Ras processing = assay: Immunoblot of unprocessed and processed Ras in cancer cell lines; type: cell-based, human; settings: H838 cells, competition assay, 24 h
Protocol: FIG. 2A-C show illustrative effective results of the exemplary Compound 1 inhibiting Ras processing in cancer cell lines. (2A) A549 and H838 cells were treated with different concentrations of Compound 1 and grown under serum (10% FBS) or serum-free (no FBS) conditions for 24 h. (2B) H838, (2C) HepG2 and K562 cells were treated with different concentrations of Compound 1 and grown under serum-free (no FBS) conditions for 24 h. Whole cell lysates were then immunoblotted with a Ras antibody. A duplicate membrane was probed with a GAPDH antibody. The relative expression level of unprocessed to processed Ras was quantified by densitometry. The experiments were conducted three times. […]
FIG. 3A-C show illustrative effective results of Compound 1 inhibiting the prenylation activity of farnesyltransferase in vitro and competes with FPP within cells. […] The relative expression level of unprocessed to processed Ras was quantified by densitometry. […]
Sixty micrograms of total protein lysates measured using a Bradford assay (Sigma-Aldrich, St. Louis, Mo., USA) were resolved on 12.5% SDS-polyacrylamide gels. […] Secondary antibodies were conjugated to horseradish peroxidase, which was detected using a 3,3′-diaminobenzidine substrate kit (Vector Laboratories, Burlingame, Calif.). The immunoreactive bands were quantified by densitometry using Image-Pro Plus software (Media Cybernetics, Silver Spring, Md.). […]

SMILES | IC50 (H838; Homo sapiens, NCI-H838, 48 h) [µM] | IC50 (A549) [µM] | IC50 (Hep3B) [µM] | IC50 (HepG2) [µM] | other results
COC1=C(OC)C(O)C(C/C=C(\C)CCC(=O)O)C(C)C1=O (centres unmarked) [Compound 27] | > 100 |  |  |  | 
COC1=C(OC)C(O)C(C/C=C(\C)CC/C=C(\C)CCC=C(C)C)C(C)C1=O (centres unmarked) [Compound 1, 4-hydroxy-2,3-dimethoxy-6-methyl-5-(3,7,11-trimethyldodeca-2,6,10-trienyl)cyclohex-2-enone] | 3.32 | 3.24 | 3.74 | 6.42 | IC50 (K562): 5.12 µM; IC50 (H838): 2.96 ± 0.05 µM; IC50 (THP-1): 2220 nM
COC1=C(OC)C(OC(C)=O)C(C/C=C(\C)CC/C=C(\C)CCC=C(C)C)C(C)C1=O (centres unmarked) [Compound 29] | > 100 |  |  |  | 
COC1=C(OCc2ccccc2)C(O)C(C/C=C(\C)CC/C=C(\C)CCC=C(C)C)C(C)C1=O (centres unmarked) [Compound 31] | 3.41 ± 1.43 | 6.68 ± 0.75 | 7.46 ± 7.06 | 8.98 ± 0.97 | 
COC1=C(OC)C(OC(C)=O)C(C/C=C(\C)CC/C=C(\C)CC2CC(C)C(=O)O2)C(C)C1=O (centres unmarked) [Compound 28] | > 100 |  |  |  | 
CC(C)=CCC/C(C)=C/CC/C(C)=C/COP(=O)(O)OP(=O)(O)O [FPP, farnesyl pyrophosphate] |  |  |  |  | concentration of FPP that neutralized the effect of Compound 1 on Ras processing (Ras processing): ≥ 10 µM
COC1=C(OCc2ccccc2)C(=O)C(C)C(C/C=C(\C)CC/C=C(\C)CCC=C(C)C)C1O (centres unmarked) [Compound 30] | 25.6 ± 6.54 | 22.6 ± 2.24 | 9.06 ± 3.03 | 27 ± 6.06 | 
COC1=CC(O)C(C/C=C(\C)CC/C=C(\C)CCC=C(C)C)C(C)C1=O (centres unmarked) [Compound 26, 4-hydroxy-2-methoxy-6-methyl-5-((2E,6E)-3,7,11-trimethyldodeca-2,6,10-trienyl)cyclohex-2-enone] | 11.3 ± 4.17 |  |  |  | 
